Data on 22 compounds can be found in patent US20100069341A1, “TETRAHYDRO-PYRANOPYRAZOLE CANNABINOID MODULATORS” (priority 2005, published 2010).

One assay deals with T1, Cannabinoid CB2 Receptor (Homo sapiens, UniProt P34972).
T1 construct: expressed in transfected cells; semi-purified membrane pellet
The assay is described as follows: Binding assay, cannabinoid CB2 receptor ([3H]-CP-55,940 displacement, SK-N-MC cell membranes). Particulars: test concentration of 0.2 μM, human CB2 in SK-N-MC membranes; for inhibition at 0.2 µM: read-out: Cannabinoid CB2 Receptor Binding, percent inhibition. The procedure, abridged: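 Membranes from SK-N-MC cells stably expressing human CB2 were incubated 90 min at 30 °C with 0.2 nM [3H]-CP-55,940 in Tris buffer, pH 7.5, with BSA; 10 uM WIN 55,212 defined non-specific binding. Filter-bound counts gave IC50 by linear regression, or % inhibition at 0.2 μM.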

The target of the next assay is T2, Cannabinoid CB1 Receptor (Homo sapiens, UniProt P21554).
T2 construct: expressed in transfected cells; semi-purified membrane pellet
T2 sequence (P21554 whole entry): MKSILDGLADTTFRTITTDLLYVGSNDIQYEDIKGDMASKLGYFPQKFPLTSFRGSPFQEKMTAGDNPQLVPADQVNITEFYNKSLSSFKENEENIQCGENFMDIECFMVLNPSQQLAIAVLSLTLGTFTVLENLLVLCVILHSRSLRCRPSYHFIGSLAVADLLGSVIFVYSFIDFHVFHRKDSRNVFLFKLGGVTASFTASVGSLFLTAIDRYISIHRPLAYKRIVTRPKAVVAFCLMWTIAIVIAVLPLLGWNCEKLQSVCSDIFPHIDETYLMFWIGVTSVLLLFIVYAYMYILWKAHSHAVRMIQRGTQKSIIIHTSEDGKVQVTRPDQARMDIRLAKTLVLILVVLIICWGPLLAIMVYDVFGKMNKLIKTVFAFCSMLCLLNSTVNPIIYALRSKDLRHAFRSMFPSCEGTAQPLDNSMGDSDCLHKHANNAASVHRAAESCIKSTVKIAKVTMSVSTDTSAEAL
The assay is described as follows: Binding assay, cannabinoid CB1 receptor ([3H]-CP-55,940 displacement, SK-N-MC cell membranes). The settings on record: for inhibition at 0.2 µM: read-out: Cannabinoid CB1 Receptor Binding, percent inhibition.

Where [1] appears, read: test concentration of 0.2 μM, human CB1 in SK-N-MC membranes.

Like-named read-outs stand apart in the source and are kept apart here.

T1 sequence (P34972 whole entry): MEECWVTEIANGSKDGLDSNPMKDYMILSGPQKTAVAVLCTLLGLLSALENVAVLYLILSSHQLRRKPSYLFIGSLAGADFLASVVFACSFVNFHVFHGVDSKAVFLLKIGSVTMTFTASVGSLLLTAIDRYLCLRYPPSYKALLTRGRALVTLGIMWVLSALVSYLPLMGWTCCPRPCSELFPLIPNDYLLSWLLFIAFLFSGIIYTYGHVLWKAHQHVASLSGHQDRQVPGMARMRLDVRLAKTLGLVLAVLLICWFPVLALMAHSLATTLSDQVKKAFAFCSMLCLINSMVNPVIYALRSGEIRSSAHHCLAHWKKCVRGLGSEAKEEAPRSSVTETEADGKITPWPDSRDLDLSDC

As a reminder, the inhibition is the drop in the measured response relative to a control, in per cent. On to `O=C(c1nn(-c2ccc(Cl)cc2)c2c1COC/C2=C\c1ccc(F)cc1)N1CCC[C@@H]1CO` [Cpd 18, (7Z)-[1-(4-chloro-phenyl)-7-(4-fluoro-benzylidene)-1,4,6,7-tetrahydro-pyrano[4,3-c]pyrazol-3-yl]-[(2R)-2-hydroxymethyl-pyrrolidin-1-yl]-methanone], for which the inhibition at 0.2 µM at Cannabinoid CB2 Receptor was found to be 14%; at Cannabinoid CB1 Receptor (setting [1]), 30%.

Regarding `C[C@@H](NC(=O)c1nn(-c2ccc(Cl)cc2Cl)c2c1COCC2Cc1ccc(F)cc1)c1ccccc1` (stereo partly drawn) [Cpd 24, 1-(2,4-dichloro-phenyl)-7-(4-fluoro-benzyl)-1,4,6,7-tetrahydro-pyrano[4,3-c]pyrazole-3-carboxylic acid [(R)-1-phenyl-ethyl]-amide], the figures for the inhibition at 0.2 µM at Cannabinoid CB2 Receptor and at Cannabinoid CB1 Receptor (setting [1]) were 13% and 66%, respectively.

Turning to `COC[C@@H]1CCCN1NC(=O)c1nn(-c2ccc(Cl)cc2Cl)c2c1COC/C2=C\c1ccc(Cl)s1` [Cpd 73, (7Z)-7-(5-chloro-thiophen-2-ylmethylene)-1-(2,4-dichloro-phenyl)-1,4,6,7-tetrahydro-pyrano[4,3-c]pyrazole-3-carboxylic acid [(2S)-2-methoxymethyl-pyrrolidin-1-yl]-amide], the inhibition at 0.2 µM at Cannabinoid CB2 Receptor was determined as 11%; on Cannabinoid CB1 Receptor (setting [1]), 57%.

Turning to `CC1CCCC(C)N1NC(=O)c1nn(-c2ccc(Cl)cc2Cl)c2c1COC/C2=C\c1ccsc1` (stereo not drawn) [Cpd 46, (7Z)-1-(2,4-dichloro-phenyl)-7-thiophen-3-ylmethylene-1,4,6,7-tetrahydro-pyrano[4,3-c]pyrazole-3-carboxylic acid (2,6-dimethyl-piperidin-1-yl)-amide], the inhibition at 0.2 µM on Cannabinoid CB2 Receptor is 20%; at Cannabinoid CB1 Receptor (setting [1]), 68%.

Regarding `O=C(N[C@H]1c2ccccc2C[C@H]1O)c1nn(-c2ccc(Cl)cc2Cl)c2c1COC/C2=C\c1ccc(F)cc1` [Cpd 4, (7Z)-1-(2,4-dichloro-phenyl)-7-(4-fluoro-benzylidene)-1,4,6,7-tetrahydro-pyrano[4,3-c]pyrazole-3-carboxylic acid [(1S,2R)-2-hydroxy-indan-1-yl]-amide], the inhibition at 0.2 µM stood at 19% on Cannabinoid CB2 Receptor and 64% at Cannabinoid CB1 Receptor (setting [1]).

Regarding `O=C(NN1CCCC1)c1nn(-c2ccc(Cl)cc2Cl)c2c1COC/C2=C\c1ccc(Cl)s1` [Cpd 57, (7Z)-7-(5-chloro-thiophen-2-ylmethylene)-1-(2,4-dichloro-phenyl)-1,4,6,7-tetrahydro-pyrano[4,3-c]pyrazole-3-carboxylic acid pyrrolidin-1-ylamide], the values for the inhibition at 0.2 µM at Cannabinoid CB2 Receptor and at Cannabinoid CB1 Receptor (setting [1]) were 15% and 67%, respectively.

Usually IC50 stands for the midpoint of a concentration-inhibition curve. For `O=C(N[C@@H]1c2ccccc2C[C@@H]1O)c1nn(-c2ccc(Cl)cc2Cl)c2c1COC/C2=C\c1ccc(F)cc1` [Cpd 5, (7Z)-1-(2,4-dichloro-phenyl)-7-(4-fluoro-benzylidene)-1,4,6,7-tetrahydro-pyrano[4,3-c]pyrazole-3-carboxylic acid [(1R,2S)-2-hydroxy-indan-1-yl)-amide], the figures for the inhibition at 0.2 µM at Cannabinoid CB2 Receptor and on Cannabinoid CB1 Receptor (setting [1]) were 28% and 82%, respectively. This compound registered a half-maximal inhibitory concentration (IC50) on Cannabinoid CB1 Receptor of 30 nM.

In the case of `O=C(NN1CC2CCCC2C1)c1nn(-c2ccc(Cl)cc2Cl)c2c1COC/C2=C\c1ccc(F)cc1` (stereo not drawn) [Cpd 17, (7Z)-1-(2,4-dichloro-phenyl)-7-(4-fluoro-benzylidene)-1,4,6,7-tetrahydro-pyrano[4,3-c]pyrazole-3-carboxylic acid (hexahydro-cyclopenta[c]pyrrol-2-yl)-amide], the inhibition at 0.2 µM at Cannabinoid CB2 Receptor came out at 29%; on Cannabinoid CB1 Receptor (setting [1]), 99%. This compound returned an IC50 on Cannabinoid CB1 Receptor of 20 nM.

For `O=C(NN1CCCCCC1)c1nn(-c2ccc(Cl)cc2Cl)c2c1COC/C2=C\c1ccc(Cl)s1` [Cpd 53, (7Z)-7-(5-chloro-thiophen-2-ylmethylene)-1-(2,4-dichloro-phenyl)-1,4,6,7-tetrahydro-pyrano[4,3-c]pyrazole-3-carboxylic acid azepan-1-ylamide], the inhibition at 0.2 µM at Cannabinoid CB2 Receptor is 10%; on Cannabinoid CB1 Receptor (setting [1]) it was 83%. For the same compound, the IC50 on Cannabinoid CB1 Receptor stood at 10 nM.

Turning to `O=C(NN1CCCCC1)c1nn(-c2ccc(Cl)cc2Cl)c2c1COCC2Cc1ccc(F)cc1` (stereo not drawn) [Cpd 23, 1-(2,4-dichloro-phenyl)-7-(4-fluoro-benzyl)-1,4,6,7-tetrahydro-pyrano[4,3-c]pyrazole-3-carboxylic acid piperidin-1-ylamide], the inhibition at 0.2 µM on Cannabinoid CB2 Receptor is 19%; at Cannabinoid CB1 Receptor (setting [1]) it was 59%.

`C[C@@H](NC(=O)c1nn(-c2ccc(Cl)cc2Cl)c2c1COC/C2=C\c1ccc(Cl)s1)C1CCCCC1` [Cpd 52, (7Z)-7-(5-chloro-thiophen-2-ylmethylene)-1-(2,4-dichloro-phenyl)-1,4,6,7-tetrahydro-pyrano[4,3-c]pyrazole-3-carboxylic acid [(R)-1-cyclohexyl-ethyl]-amide]: the inhibition at 0.2 µM on Cannabinoid CB2 Receptor is 21%; at Cannabinoid CB1 Receptor (setting [1]), 88%. This compound also yielded an IC50 at Cannabinoid CB1 Receptor of 9 nM.

With “(7Z)-azepan-1-yl-[1-(2,4-dichloro-phenyl)-7-(4-fluoro-benzylidene)-1,4,6,7-tetrahydro-pyrano[4,3-c]pyrazol-3-yl]-methanone [Cpd 28]”, the “Cannabinoid CB2 Receptor Binding, percent inhibition” value at Cannabinoid CB2 Receptor was 10%. Moreover, the IC50 on Cannabinoid CB1 Receptor (human CB1 in SK-N-MC membranes, radioligand CP-55,940 0.2 nM, calculated by linear regression, read-out: Cannabinoid CB1 Receptor Binding, IC50 binding value) is 9 nM. Also, the “Cannabinoid CB1 Receptor Binding, percent inhibition” value at Cannabinoid CB1 Receptor (setting [1]) stood at 88%.

For `O=C(c1nn(-c2ccc(Cl)cc2Cl)c2c1COC/C2=C\c1ccc(F)cc1)N1CCCCC1` [Cpd 8, (7Z)-[1-(2,4-dichloro-phenyl)-7-(4-fluoro-benzylidene)-1,4,6,7-tetrahydro-pyrano[4,3-c]pyrazol-3-yl]-piperidin-1-yl-methanone], the inhibition at 0.2 µM turned out to be 7% at Cannabinoid CB2 Receptor and 45% on Cannabinoid CB1 Receptor (setting [1]).

For `O=C(NN1CCCCC1)c1nn(-c2ccc(Cl)cc2Cl)c2c1COC/C2=C\c1ccc(F)cc1` [Cpd 7, (7Z)-1-(2,4-dichloro-phenyl)-7-(4-fluoro-benzylidene)-1,4,6,7-tetrahydro-pyrano[4,3-c]pyrazole-3-carboxylic acid piperidin-1-ylamide], the results for the inhibition at 0.2 µM on Cannabinoid CB2 Receptor and on Cannabinoid CB1 Receptor (setting [1]) were 8% and 79%, respectively. In addition, the IC50 on Cannabinoid CB1 Receptor turned out to be 40 nM.

With `C[C@@H](NC(=O)c1nn(-c2ccc(Cl)cc2Cl)c2c1COC/C2=C\c1ccsc1)C1CCCCC1` [Cpd 39, (7Z)-1-(2,4-dichloro-phenyl)-7-thiophen-3-ylmethylene-1,4,6,7-tetrahydro-pyrano[4,3-c]pyrazole-3-carboxylic acid [(R)-1-cyclohexyl-ethyl]-amide], the inhibition at 0.2 µM was found to be 13% at Cannabinoid CB2 Receptor and 84% on Cannabinoid CB1 Receptor. The same compound displayed a half-inhibitory concentration (IC50) on Cannabinoid CB1 Receptor of 20 nM.

Regarding `C[C@H](NC(=O)c1nn(-c2ccc(Cl)cc2Cl)c2c1COC/C2=C\c1ccc(Cl)s1)C1CCCCC1` [Cpd 50, (7Z)-7-(5-chloro-thiophen-2-ylmethylene)-1-(2,4-dichloro-phenyl)-1,4,6,7-tetrahydro-pyrano[4,3-c]pyrazole-3-carboxylic acid [(S)-1-cyclohexyl-ethyl]-amide], the inhibition at 0.2 µM at Cannabinoid CB2 Receptor was found to be 2%; at Cannabinoid CB1 Receptor (setting [1]), 34%.

For `CC1CCCC(C)N1NC(=O)c1nn(-c2ccc(Cl)cc2Cl)c2c1COC/C2=C\c1ccc(F)cc1` (stereo not drawn) [Cpd 27, (7Z)-1-(2,4-dichloro-phenyl)-7-(4-fluoro-benzylidene)-1,4,6,7-tetrahydro-pyrano[4,3-c]pyrazole-3-carboxylic acid (2,6-dimethyl-piperidin-1-yl)-amide], the inhibition at 0.2 µM at Cannabinoid CB2 Receptor worked out at 20%; at Cannabinoid CB1 Receptor (setting [1]), 77%. On Cannabinoid CB1 Receptor, this compound returned an IC50 of 40 nM.

Take `C[C@@H](NC(=O)c1nn(-c2ccc(Cl)cc2Cl)c2c1COC/C2=C\c1ccc(Cl)o1)C1CCCCC1` [Cpd 62, (7Z)-7-(5-chloro-furan-2-ylmethylene)-1-(2,4-dichloro-phenyl)-1,4,6,7-tetrahydro-pyrano[4,3-c]pyrazole-3-carboxylic acid [(R)-1-cyclohexyl-ethyl]-amide]: on Cannabinoid CB2 Receptor, the inhibition at 0.2 µM was found to be 17%. On Cannabinoid CB1 Receptor, the 50% inhibitory concentration (IC50) stood at 30 nM and the inhibition at 0.2 µM is 74%.

With `C[C@@H](NC(=O)c1nn(-c2ccc(Cl)cc2Cl)c2c1COC/C2=C\c1ccc(Cl)s1)c1ccccn1` [Cpd 61, (7Z)-7-(5-chloro-thiophen-2-ylmethylene)-1-(2,4-dichloro-phenyl)-1,4,6,7-tetrahydro-pyrano[4,3-c]pyrazole-3-carboxylic acid [(R)-1-pyridin-2-yl-ethyl]-amide], the inhibition at 0.2 µM on Cannabinoid CB2 Receptor was 9.5%; at Cannabinoid CB1 Receptor (setting [1]), 84%. The compound further registered an IC50 on Cannabinoid CB1 Receptor of 50 nM.

Turning to `O=C(NN1CCCC1)c1nn(-c2ccc(Cl)cc2Cl)c2c1COC/C2=C\c1cccs1` [Cpd 34, (7Z)-1-(2,4-dichloro-phenyl)-7-thiophen-2-ylmethylene-1,4,6,7-tetrahydro-pyrano[4,3-c]pyrazole-3-carboxylic acid pyrrolidin-1-ylamide], the inhibition at 0.2 µM stood at 7% on Cannabinoid CB2 Receptor and 54% at Cannabinoid CB1 Receptor (setting [1]).

Consider `C[C@H](NC(=O)c1nn(-c2ccc(Cl)cc2Cl)c2c1COC/C2=C\c1ccc(F)cc1)c1ccccc1` [Cpd 1, (7Z)-1-(2,4-dichloro-phenyl)-7-(4-fluoro-benzylidene)-1,4,6 7-tetrahydro-pyrano[4,3-c]pyrazole-3-carboxylic acid [(1S)-1-phenyl-ethyl]-amide], for which the inhibition at 0.2 µM was 6% on Cannabinoid CB2 Receptor and 54% on Cannabinoid CB1 Receptor (setting [1]).

Regarding `CC(NC(=O)c1nn(-c2ccc(Cl)cc2Cl)c2c1COC/C2=C\c1ccc(Cl)s1)c1ccccn1` (stereo not drawn) [Cpd 60, (7Z)-7-(5-chloro-thiophen-2-ylmethylene)-1-(2,4-dichloro-phenyl)-1,4,6,7-tetrahydro-pyrano[4,3-c]pyrazole-3-carboxylic acid (1-pyridin-2-yl-ethyl)-amide], the inhibition at 0.2 µM on Cannabinoid CB2 Receptor came to 7%; on Cannabinoid CB1 Receptor (setting [1]), 58%.
